# Legend:
# Rab10 pThr73 [1] = test: Rab10 Thr73 dephosphorylation (immunoblot) in WT MEFs; type: cell-based, mouse; conditions: Mus musculus, read-out: pRab10 inhibited in WT MEFs
# Outline: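 Wild-type mouse embryonic fibroblasts in 6-well plates were treated with LRRK2 PROTACs, with two biological replicates per condition. Cells were washed in PBS and lysed on ice in buffer containing phosphatase and protease inhibitors plus 1% Triton X-100, then clarified at 15,000 g. Rab10 Thr73 phosphorylation was measured by quantitative immunoblotting of 15 to 20 μg protein on 4-12% Bis-Tris gels.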
# Rab10 pThr73 [2] = test: Rab10 Thr73 dephosphorylation (immunoblot) in LRRK2^G2019S MEFs; type: cell-based, mouse; conditions: Mus musculus, read-out: pRab10 inhibited in LRRK2^G2019S MEFs
# Rab10 pThr73 [3] = test: as above; type: cell-based; conditions: Mus musculus, read-out: pRab10 inhibited in LRRK2^G2019S MEFs
SMILES,inhibition at 0.033 µM (Rab10 pThr73 [1]; 33 nM/4 h treatment) [%],inhibition at 0.033 µM (Rab10 pThr73 [1]; 33 nM/24 h treatment) [%],inhibition at 1 µM (Rab10 pThr73 [1]; 1 μM/4 h treatment) [%],inhibition at 1 µM (Rab10 pThr73 [1]; 1 μM/24 h treatment) [%],inhibition at 1 µM (Rab10 pThr73 [2]; 1 μM/4 h treatment) [%],inhibition at 1 µM (Rab10 pThr73 [2]; 1 μM/24 h treatment) [%],inhibition at 0.033 µM (Rab10 pThr73 [3]; 33 nM/4 h treatment) [%],inhibition at 0.033 µM (Rab10 pThr73 [3]; 33 nM/24 h treatment) [%]
"CNc1nc(Nc2ccc(C(=O)N3CCN(CCOCCOCCSC(C)(C)[C@@H](NC(=O)C4(F)CC4)C(=O)N4C[C@H](O)C[C@H]4C(=O)NCc4ccc(-c5scnc5C)cc4)CC3)cc2OC)ncc1C(F)(F)F [XL01078B, (2S,4R)-1-((S)-2-(1-fluorocyclopropane-1-carboxamido)-3-((2-(2-(2-(4-(3-methoxy-4-((4-(methylamino)-5-(trifluoromethyl)pyrimidin-2-yl)amino)benzoyl)piperazin-1-yl)ethoxy)ethoxy)ethyl)thio)-3-methylbutanoyl)-4-hydroxy-N-(4-(4-methylthiazol-5-yl)benzyl)pyrrolidine-2-carboxamide]",0 to 40,0 to 60,10 to 95,30 to 100,20 to 100,10 to 100,0 to 70,0 to 90
"CNc1nc(Nc2ccc(C(=O)N3CCN(CCOCCOCCOc4cc(-c5scnc5C)ccc4CNC(=O)[C@@H]4C[C@@H](O)CN4C(=O)[C@@H](NC(=O)C4(F)CC4)C(C)(C)C)CC3)cc2OC)ncc1Cl [SD12, (2S,4R)—N-(2-(2-(2-(2-(4-(4-((5-chloro-4-(methylamino)pyrimidin-2-yl)amino)-3-methoxybenzoyl)piperazin-1-yl)ethoxy)ethoxy)ethoxy)-4-(4-methylthiazol-5-yl)benzyl)-1-((S)-2-(1-fluorocyclopropane-1-carboxamido)-3,3-dimethylbutanoyl)-4-hydroxypyrrolidine-2-carboxamide]",0 to 25,10 to 40,18 to 90,30 to 90,30 to 95,30 to 100,0 to 60,0 to 70
"CNc1nc(Nc2ccc(C(=O)N3CCN(C[C@@H]4CCC[C@H](CSC(C)(C)[C@H](NC(=O)C5(F)CC5)C(=O)N5C[C@H](O)C[C@H]5C(=O)NCc5ccc(-c6scnc6C)cc5)C4)CC3)cc2OC)ncc1Cl [XL02063, (2S,4R)-1-((R)-3-((((1S,3R)-3-((4-(4-((5-chloro-4-(methylamino)pyrimidin-2-yl)amino)-3-methoxybenzoyl)piperazin-1-yl)methyl)cyclohexyl)methyl)thio)-2-(1-fluorocyclopropane-1-carboxamido)-3-methylbutanoyl)-4-hydroxy-N-(4-(4-methylthiazol-5-yl)benzyl)pyrrolidine-2-carboxamide]",0 to 70,0 to 80,80 to 100,80 to 100,10 to 100,80 to 100,0 to 90,30 to 90
"CNc1nc(Nc2ccc(OCCOCCOCCOCCSC(C)(C)[C@@H](NC(=O)C3(F)CC3)C(=O)N3C[C@H](O)C[C@H]3C(=O)NCc3ccc(-c4scnc4C)cc3)cc2OC)ncc1Cl [XL01145, (2S,4R)-1-((S)-1-(4-((5-chloro-4-(methylamino)pyrimidin-2-yl)amino)-3-methoxyphenoxy)-14-(1-fluorocyclopropane-1-carboxamido)-13,13-dimethyl-3,6,9-trioxa-12-thiapentadecan-15-oyl)-4-hydroxy-N-(4-(4-methylthiazol-5-yl)benzyl)pyrrolidine-2-carboxamide]",0 to 40,0 to 60,10 to 95,30 to 100,20 to 100,10 to 100,0 to 70,0 to 90
"CNc1nc(Nc2ccc(OC[C@H]3CC[C@H](CSC(C)(C)C(NC(=O)C4(F)CC4)C(=O)N4C[C@H](O)C[C@H]4C(=O)NCc4ccc(-c5scnc5C)cc4)CC3)cc2OC)ncc1Cl (stereo partly drawn) [XL01168, (2S,4R)-1-((S)-3-((((1R,4S)-4-((4-((5-chloro-4-(methylamino)pyrimidin-2-yl)amino)-3-methoxyphenoxy)methyl)cyclohexyl)methyl)thio)-2-(1-fluorocyclopropane-1-carboxamido)-3-methylbutanoyl)-4-hydroxy-N-(4-(4-methylthiazol-5-yl)benzyl)pyrrolidine-2-carboxamide]",0 to 40,0 to 60,10 to 95,30 to 100,20 to 100,10 to 100,0 to 70,0 to 90
CNc1nc(Nc2ccc(C(=O)N3C[C@@H](C)N(C[C@H]4CC[C@H](CSC(C)(C)C(NC(=O)C5(F)CC5)C(=O)N5C[C@H](O)C[C@H]5C(=O)NCc5ccc(-c6scnc6C)cc5)CC4)[C@@H](C)C3)cc2OC)ncc1Cl (stereo partly shown) [XL02031],0 to 70,0 to 80,80 to 100,80 to 100,10 to 100,80 to 100,0 to 90,30 to 90
"CNc1nc(Nc2ccc(C(=O)N3CCN(CCCSC(C)(C)[C@H](NC(=O)C4(F)CC4)C(=O)N4C[C@H](O)C[C@H]4C(=O)N[C@@H](C)c4ccc(-c5scnc5C)cc4)CC3)cc2OC)ncc1Cl [XL01118, (2S,4R)-1-((R)-3-((3-(4-(4-((5-chloro-4-(methylamino)pyrimidin-2-yl)amino)-3-methoxybenzoyl)piperazin-1-yl)propyl)thio)-2-(1-fluorocyclopropane-1-carboxamido)-3-methylbutanoyl)-4-hydroxy-N—((S)-1-(4-(4-methylthiazol-5-yl)phenyl)ethyl)pyrrolidine-2-carboxamide]",0 to 40,0 to 60,10 to 95,30 to 100,20 to 100,10 to 100,0 to 70,0 to 90
"CNc1nc(Nc2ccc(C(=O)N3CCN(CCCOc4cccc(C(=O)c5csc(C6CCCN6C(=O)[C@@H](NC(=O)[C@H](C)NC)C6CCCCC6)n5)c4)CC3)cc2OC)ncc1Cl (stereo partly drawn) [SD114, (S)—N—((S)-2-((S)-2-(4-(3-(3-(4-(4-((5-chloro-4-(methylamino)pyrimidin-2-yl)amino)-3-methoxybenzoyl)piperazin-1-yl)propoxy)benzoyl)thiazol-2-yl)pyrrolidin-1-yl)-1-cyclohexyl-2-oxoethyl)-2-(methylamino)propenamide]",0 to 25,10 to 40,18 to 90,30 to 90,30 to 95,30 to 100,0 to 60,0 to 70
"CNc1nc(Nc2ccc(C(=O)N3CCN(CCOCCOCCOCCOCCOc4cc(-c5scnc5C)ccc4CNC(=O)[C@@H]4C[C@@H](O)CN4C(=O)[C@@H](NC(=O)C4(F)CC4)C(C)(C)C)CC3)cc2OC)ncc1Cl [SD79, (2S,4R)—N-(2-((14-(4-(4-((5-chloro-4-(methylamino)pyrimidin-2-yl)amino)-3-methoxybenzoyl)piperazin-1-yl)-3,6,9,12-tetraoxatetradecyl)oxy)-4-(4-methylthiazol-5-yl)benzyl)-1-((S)-2-(1-fluorocyclopropane-1-carboxamido)-3,3-dimethylbutanoyl)-4-hydroxypyrrolidine-2-carboxamide]",0 to 25,10 to 40,18 to 90,30 to 90,30 to 95,30 to 100,0 to 60,0 to 70
"CNc1nc(Nc2ccc(OCCOCCCSC(C)(C)[C@@H](NC(=O)C3(F)CC3)C(=O)N3C[C@H](O)C[C@H]3C(=O)NCc3ccc(-c4scnc4C)cc3)cc2OC)ncc1Cl [XL01149, (2S,4R)-1-((S)-3-((3-(2-(4-((5-chloro-4-(methylamino)pyrimidin-2-yl)amino)-3-methoxyphenoxy)ethoxy)propyl)thio)-2-(1-fluorocyclopropane-1-carboxamido)-3-methylbutanoyl)-4-hydroxy-N-(4-(4-methylthiazol-5-yl)benzyl)pyrrolidine-2-carboxamide]",0 to 40,0 to 60,10 to 95,30 to 100,20 to 100,10 to 100,0 to 70,0 to 90
"CNc1nc(Nc2ccc(C(=O)N3CCN(CCOCCOCCOCCOCCOc4cccc(C(=O)c5csc(C6CCCN6C(=O)[C@@H](NC(=O)[C@H](C)NC)C6CCCCC6)n5)c4)CC3)cc2OC)ncc1Cl (stereo partly drawn) [SD112, (S)—N—((S)-2-((S)-2-(4-(3-((14-(4-(4-((5-chloro-4-(methylamino)pyrimidin-2-yl)amino)-3-methoxybenzoyl)piperazin-1-yl)-3,6,9,12-tetraoxatetradecyl)oxy)benzoyl)thiazol-2-yl)pyrrolidin-1-yl)-1-cyclohexyl-2-oxoethyl)-2-(methylamino)propenamide]",0 to 25,10 to 40,18 to 90,30 to 90,30 to 95,30 to 100,0 to 60,0 to 70

# From US20260001875A1, “AMINOPYRIMIDINYL DERIVATIVES FOR THE TREATMENT OF PARKINSON'S DISEASE” (UNIVERSITY OF DUNDEE, priority 2022, published 2026)
